The values below come from patent US8431596B2 (Cancer Research Technology Limited, priority 2007, dated 2013).

The IC50 is the concentration that inhibits the measured activity by half.

In this experiment the target is T1, AXL (human catalytic domain) (Homo sapiens, UniProt P30530).
T1 construct: purchased Upstate Ltd. 14-512
T1 sequence (P30530 473-894): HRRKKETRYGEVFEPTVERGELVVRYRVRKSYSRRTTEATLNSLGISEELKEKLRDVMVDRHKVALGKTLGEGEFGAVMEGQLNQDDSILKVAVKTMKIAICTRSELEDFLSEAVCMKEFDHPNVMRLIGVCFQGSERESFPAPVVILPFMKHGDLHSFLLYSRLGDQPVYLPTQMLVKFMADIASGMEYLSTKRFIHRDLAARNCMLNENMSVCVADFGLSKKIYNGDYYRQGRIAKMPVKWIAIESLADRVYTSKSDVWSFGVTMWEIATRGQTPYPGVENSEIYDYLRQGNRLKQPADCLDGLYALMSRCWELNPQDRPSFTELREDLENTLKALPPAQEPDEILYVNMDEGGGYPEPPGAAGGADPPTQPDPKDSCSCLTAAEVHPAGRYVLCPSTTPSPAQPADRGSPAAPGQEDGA
Put plainly: AXL (human catalytic domain) Enzyme Activity Assay (IMAP fluorescence polarisation). The experiment is classed as biochemical. In short, it runs like this:
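Recombinant human AXL isoform 1 (aa473-894; final 15 nM) phosphorylated 100 nM fluorescein-CSK-tide with 150 μM ATP (KM) in HEPES pH 7.0/MgCl2/DTT buffer for 60 min at room temperature. IMAP fluorescence polarisation read after overnight binding; IC50 from 10-point 4-parameter logistic fits.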
Background: Fluorescence polarisation rises when a labelled molecule tumbles more slowly, as on binding a larger partner.

[1] abbreviates: first data set, recombinant AXL isoform 1 aa473-894, 150 μM ATP.
[2] abbreviates: further data set (WW-001 through WW-169, XX-001 through XX-469, YY-001 through YY-016, ZZ-001 through ZZ-003), 150 μM ATP.

On to `CN(C)c1ccc(-c2cccc3nc(NC(=O)C4CC4)nn23)cc1` [WW-069], for which the concentration for half-maximal inhibition (IC50) by setting is: under setting [1], under 1 µM; under setting [2], 0.1 to 1 µM. `Cn1ccnc1CNc1cccc(-c2cccc3nc(Nc4ccc(OCCN5CCCC5)cc4)nn23)c1` [XX-258] displayed an IC50 under setting [2] of 1 to 10 µM. In turn, `CCn1cc(-c2cccc3nc(Nc4ccc(OCCN5CCCC5)cc4)nn23)cn1` [XX-315] displayed an IC50 under setting [2] of 0.1 to 1 µM. For the compound `CCCn1cc(-c2cccc3nc(NC(=O)C4CC4)nn23)cn1` [WW-124, Cyclopropanecarboxylic acid [5-(1-propyl-1H-pyrazol-4-yl)-[1,2,4]triazolo[1,5-a]pyridin-2-yl]-amide], the half-inhibitory concentration (IC50) by setting is: under setting [1], 1 to 10 µM; under setting [2], 1 to 10 µM. On to `CCN(CC)CCOc1cc(Nc2nc3cccc(-c4cnn(S(=O)(=O)CC(C)C)c4)n3n2)ccn1` [XX-389], for which, under setting [2], the half-inhibitory concentration (IC50) fell in the range of 0.1 to 1 µM. Compound `Cc1ccc(S(=O)(=O)Nc2ccc(-c3cccc4nc(Nc5ccc(OCCN6CCCC6)cc5)nn34)cc2)cc1` [XX-271] returned an IC50 under setting [2] of 0.1 to 1 µM. With `O=C(Cn1cc(-c2cccc3nc(Nc4ccc(OCCN5CCCC5)cc4)nn23)cn1)Nc1cccc(Cl)c1` [XX-435], the half-inhibitory concentration (IC50) under setting [2] lay within 0.1 to 1 µM. With `CC(C)CC(=O)NCc1cccc(-c2cccc3nc(Nc4ccc(OCCN5CCCC5)cc4)nn23)c1` [XX-325, 3-Methyl-N-(3-{2-[4-(2-pyrrolidin-1-yl-ethoxy)-phenylamino]-[1,2,4]triazolo[1,5-a]pyridin-5-yl}-benzyl)-butyramide], under setting [2], the 50% inhibitory concentration (IC50) lay within 0.1 to 1 µM. In the case of `O=C(Nc1nc2cccc(-c3ccc(OC(F)(F)F)cc3)n2n1)C1CC1` [WW-099], the 50% inhibitory concentration (IC50) lay in the range of 1 to 10 µM under setting [1] and 1 to 10 µM under setting [2]. Take `c1cc(-c2ccc3c(c2)CCO3)n2nc(Nc3ccc(OCCN4CCCCC4)cc3)nc2c1` [XX-052]: the IC50 is under 1 µM under setting [1] and 0.1 to 1 µM under setting [2]. Under setting [2], `CCN(CC)CCNc1cccc(Nc2nc3cccc(-c4ccc5c(c4)OCCO5)n3n2)c1` [XX-128] showed an IC50 of 0.1 to 1 µM.

In the case of `CCN(CC)CCOc1cccc(Nc2nc3cccc(-c4ccc5c(c4)OCCN5C)n3n2)c1` [XX-096], under setting [2], the IC50 lay within 0.1 to 1 µM. The compound `FC(F)(F)Oc1cccc(Cn2cc(-c3cccc4nc(Nc5ccc(OCCN6CCCC6)cc5)nn34)cn2)c1` [XX-366] showed a 50% inhibitory concentration (IC50) under setting [2] of 0.1 to 1 µM.

As for `Cc1c(-c2cccc3nc(Nc4ccc(OCCN5CCCC5)cc4)nn23)cnn1-c1ccccc1` [XX-438], the IC50 under setting [2] was 0.1 to 1 µM. For the compound `CN1CCN(c2ccc(-c3cccc4nc(NC(=O)C5CC5)nn34)cc2)CC1` [WW-003, Cyclopropanecarboxylic acid {5-[4-(4-methyl-piperazin-1-yl)-phenyl]-[1,2,4]triazolo [1,5-a]pyridin-2-yl}-amide], the half-maximal inhibitory concentration (IC50) is, setting by setting: under setting [1], 1 to 10 µM; under setting [2], 1 to 10 µM.

For `ClCc1cccc(-c2cccc3nc(Nc4ccc(OCCN5CCCC5)cc4)nn23)c1` [XX-341, [5-(3-Chloromethyl-phenyl)-[1,2,4]triazolo[1,5-a]pyridin-2-yl]-[4-(2-pyrrolidin-1-yl-ethoxy)-phenyl]-amine], the half-maximal inhibitory concentration (IC50) under setting [2] was in the range of 0.1 to 1 µM. As to `O=C(Cn1cc(-c2cccc3nc(Nc4ccc(OCCN5CCCC5)cc4)nn23)cn1)NC1CC1` [XX-437], under setting [2], the concentration for half-maximal inhibition (IC50) lay in the range of 1 to 10 µM. As to `c1cc(-c2ccc3occc3c2)n2nc(Nc3ccc(OCCN4CCCC4)cc3)nc2c1` [XX-020], the IC50 runs as follows: under setting [1], under 1 µM; under setting [2], at most 0.1 µM. Regarding `CC(CNc1ccc(Nc2nc3cccc(-c4ccc5c(c4)OCCO5)n3n2)cc1)N1CCCC1` (stereo not drawn) [XX-139], under setting [2], the half-inhibitory concentration (IC50) is at most 0.1 µM. For `c1cc(-c2ccc3c(c2)OCCO3)n2nc(Nc3ccc(OCCN4CCCCC4)cc3)nc2c1` [XX-054], the half-maximal inhibitory concentration (IC50) was under 1 µM under setting [1] and at most 0.1 µM under setting [2]. With `c1cc(-c2ccc(N3CCOCC3)cc2)n2nc(Nc3ccc(OCCN4CCCC4)cc3)nc2c1` [XX-038], the half-maximal inhibitory concentration (IC50) runs as follows: under setting [1], under 1 µM; under setting [2], at most 0.1 µM. For the compound `CC(Nc1cccc2nc(NC(=O)C3CC3)nn12)c1ccccc1` (stereo not drawn) [WW-113], the IC50 was in the range of 1 to 10 µM under setting [1] and 1 to 10 µM under setting [2].

Consider `Cc1nn(C)c(C)c1-c1cccc(-c2cccc3nc(Nc4ccc(OCCN5CCCC5)cc4)nn23)c1` [XX-170], for which the IC50 under setting [2] lay in the range of 0.1 to 1 µM. `CNc1ccc(-c2cccc3nc(NC(=O)C4CC4)nn23)cc1` [WW-120, Cyclopropanecarboxylic acid [5-(4-methylamino-phenyl)-[1,2,4]triazolo[1,5-a]pyridin-2-yl]-amide]: the 50% inhibitory concentration (IC50) under setting [1] lay within 1 to 10 µM and the 50% inhibitory concentration (IC50) under setting [2] is 1 to 10 µM.

As to `CN(C)CCOc1ccc(Nc2nc3cccc(-c4ccc5c(c4)CCO5)n3n2)cc1` [XX-053], the IC50 by setting is: under setting [1], under 1 µM; under setting [2], at most 0.1 µM. The compound `Fc1ccc(Nc2nc3cccc(-c4ccc5c(c4)OCCO5)n3n2)cc1OCCN1CCCC1` [XX-134] showed a concentration for half-maximal inhibition (IC50) under setting [2] of 0.1 to 1 µM. As to `COc1cccc(COc2ccc(-c3cccc4nc(NC(=O)C5CC5)nn34)cc2)c1` [WW-123, Cyclopropanecarboxylic acid {5-[4-(3-methoxy-benzyloxy)-phenyl]-[1,2,4]triazolo[1,5-a]pyridin-2-yl}-amide], the IC50 runs as follows: under setting [1], 1 to 10 µM; under setting [2], 1 to 10 µM. For `COc1cc(Nc2cccc3nc(NC(=O)C4CC4)nn23)cc(OC)c1OC` [WW-161], the concentration for half-maximal inhibition (IC50) reads like this: under setting [1], 1 to 10 µM; under setting [2], 1 to 10 µM. Compound `c1ccc2sc(-c3cccc4nc(Nc5ccc(OCCCN6CCCCC6)cc5)nn34)cc2c1` [XX-422] gave an IC50 under setting [2] of 0.1 to 1 µM. With `CC(Oc1ccc(Nc2nc3cccc(-c4ccc5c(c4)OCCO5)n3n2)cc1)C(N)=O` (stereo not drawn) [XX-072], the concentration for half-maximal inhibition (IC50) under setting [1] is under 1 µM and the IC50 under setting [2] lay within 0.1 to 1 µM.

Take `CSc1ccc(-c2cccc3nc(NC(=O)C4CC4)nn23)cc1` [WW-136]: the IC50 was 1 to 10 µM under setting [1] and 1 to 10 µM under setting [2]. Regarding `CCCCCCS(=O)(=O)n1cc(-c2cccc3nc(Nc4ccc(OCCN5CCCC5)cc4)nn23)cn1` [XX-379], under setting [2], the concentration for half-maximal inhibition (IC50) was in the range of 0.1 to 1 µM. Compound `Cc1cc(CNc2cccc(-c3cccc4nc(Nc5ccc(OCCN6CCCC6)cc5)nn34)c2)n(C)n1` [XX-262] returned an IC50 under setting [2] of 1 to 10 µM. For the compound `O=C(Nc1nc2cccc(-c3ccc(OCC4CC4)cc3)n2n1)C1CC1` [WW-121], the IC50 lay within 1 to 10 µM under setting [1] and 1 to 10 µM under setting [2]. With `COc1ccc(-c2cccc3nc(Nc4ccc(OCCNc5ccncc5)cc4)nn23)cc1` [XX-028], the concentration for half-maximal inhibition (IC50) reads like this: under setting [1], under 1 µM; under setting [2], 0.1 to 1 µM.

`COc1cc(CNc2cccc(-c3cccc4nc(Nc5ccc(OCCN6CCCC6)cc5)nn34)c2)cc(OC)c1` [XX-450]: the IC50 under setting [2] was in the range of 0.1 to 1 µM. `c1cc(OCC2CCCO2)cc(-c2cccc3nc(Nc4ccc(OCCN5CCCC5)cc4)nn23)c1` (stereo not drawn) [XX-175, [4-(2-Pyrrolidin-1-yl-ethoxy)-phenyl]-{5-[3-(tetrahydro-furan-2-ylmethoxy)-phenyl]-[1,2,4]triazolo[1,5-a]pyridin-2-yl}-amine]: the concentration for half-maximal inhibition (IC50) under setting [2] fell in the range of 0.1 to 1 µM. Under setting [2], `O=C(Nc1cccc(-c2cccc3nc(Nc4ccc(OCCN5CCCC5)cc4)nn23)c1)c1ccc2nonc2c1` [XX-182] returned an IC50 of 0.1 to 1 µM. With `c1cc(-c2ccc3c(c2)OCCO3)n2nc(Nc3ccc(NCCN4CCCC4)cc3)nc2c1` [XX-105], the IC50 under setting [2] lay within 0.1 to 1 µM. On the same count and under the same terms, the same measure for `CCN(CC)CCOc1cc(Nc2nc3cccc(-c4ccc(OC(C)C)cc4)n3n2)ccn1` [XX-360]: at most 0.1 µM; for `COc1cccc(CNc2cccc(-c3cccc4nc(Nc5ccc(OCCN6CCCC6)cc5)nn34)c2)c1` [XX-452]: 0.1 to 1 µM. Regarding `c1ccc(Oc2ccc(-c3cccc4nc(Nc5ccc(OCCN6CCCC6)cc5)nn34)cc2)cc1` [XX-247], the IC50 under setting [2] was in the range of 0.1 to 1 µM. Under setting [2], `Cc1noc(C)c1-c1cccc(-c2cccc3nc(Nc4ccc(OCCN5CCCC5)cc4)nn23)c1` [XX-464] gave a half-inhibitory concentration (IC50) of 0.1 to 1 µM. On to `O=C(Nc1nc2cccc(-c3ccc(N4CCOCC4)nc3)n2n1)C1CC1` [WW-062], for which the IC50 lay within 1 to 10 µM under setting [1] and 1 to 10 µM under setting [2].

As to `CC(C)Oc1ccc(-c2cccc3nc(NC(=O)C4CC4)nn23)cc1` [WW-150], the IC50 reads like this: under setting [1], 1 to 10 µM; under setting [2], 1 to 10 µM.

As to `O=C(Nc1nc2cccc(-c3ccc4c(c3)OCCCO4)n2n1)C1CC1` [WW-144], the concentration for half-maximal inhibition (IC50) is 1 to 10 µM under setting [1] and 1 to 10 µM under setting [2].

`O=S(=O)(C1CCCCC1)n1cc(-c2cccc3nc(Nc4ccc(OCCN5CCCC5)cc4)nn23)cn1` [XX-381] displayed a 50% inhibitory concentration (IC50) under setting [2] of at most 0.1 µM. Regarding `CN(C)CCNC(=O)c1cccc(Nc2nc3cccc(-c4ccc5c(c4)OCCO5)n3n2)c1` [XX-080], the IC50 is, setting by setting: under setting [1], under 1 µM; under setting [2], at most 0.1 µM.

Under setting [2], `COc1cc(-c2cccc3nc(Nc4ccc(OCCN5CCCC5)cc4)nn23)ccc1F` [XX-334] gave an IC50 of 0.1 to 1 µM. In the case of `OCCn1cc(-c2cccc3nc(Nc4ccc(OCCN5CCCC5)cc4)nn23)cn1` [XX-307, 2-(4-{2-[4-(2-Pyrrolidin-1-yl-ethoxy)-phenylamino]-[1,2,4]triazolo[1,5-a]pyridin-5-yl}-pyrazol-1-yl)-ethanol], the IC50 under setting [2] lay in the range of 0.1 to 1 µM. For `O=C(Nc1cccc(-c2cccc3nc(Nc4ccc(OCCN5CCCC5)cc4)nn23)c1)c1ccco1` [XX-181], under setting [2], the IC50 fell in the range of 0.1 to 1 µM. `O=C(CCN1CCCCC1)Nc1cccc(Nc2nc3cccc(-c4ccc5c(c4)OCCO5)n3n2)c1` [XX-125] returned a 50% inhibitory concentration (IC50) under setting [2] of 0.1 to 1 µM. Turning to `COc1ccc(-c2cccc3nc(Nc4cccc(OCCN5CCOCC5)c4)nn23)cc1` [XX-014], the IC50 under setting [1] was under 1 µM and the IC50 under setting [2] lay in the range of 0.1 to 1 µM.
